Data published in patent US12391990B2, “Determination of magnesium body concentration” (Vanderbilt University, priority 2019, dated 2025).

Key:
[1] = Magnesium tolerance test (MTT), percent Mg retention from 24-hour urine; assay type: in vivo, human; settings: after 12-week Mg supplementation, ongoing trial
Description: In a magnesium tolerance test, a health care professional, such as a doctor, gives a participant a shot of a known amount of magnesium and then later uses the participant's urine to determine how much magnesium the participant's body retained, and how much the body eliminated.
In an exemplary study as described herein, participants who completed the study received a schedule of planned magnesium tolerance tests on two consecutive days. A 24-hour urine sample was collected for determining the basal urinary magnesium excretion prior to the intravenous infusion of magnesium sulfate. Another 24-hour urine sample was obtained starting with the IV infusion.
• 1. […] Percentage magnesium retained is calculated by the formula below (Mg: magnesium) […]
A Mg tolerance test, the most accurate approach to evaluate Mg nutriture, is conducted at the end of trial. […] For the Mg tolerance test, the participant's percent retention is calculated by the following formula: [1−(post infusion Mg excretion-pre infusion Mg excretion)/total Mg infused]×100. […]
MTT was conducted on 78 subjects in PPCCT. […] Urine magnesium level was measured using 7D70 Magnesium Reagent Kit from Abbot Laboratories (Abbott Park, TL). […] The absorbance of the arsenazo-magnesium complex is measured at 572 nm and is proportional to the concentration of magnesium present in the sample.

[2] = tested on: 5-hmC levels in rectal tissues; assay: 5-hmC affinity enrichment sequencing of pre- and post-treatment rectal tissues; assay type: in vivo, human; settings: rectal tissue
Procedure: 5-hmC alterations induced by Mg treatment. As mentioned, due to technological limitations, distinguishing 5-hmC from 5-mC has only recently been possible. Using the technology an evaluation was conducted of 5-hmC in normal rectal mucosa collected at baseline from 7 participants of the PPCCT. 5-hmC-specific affinity pull-down^142 samples were sequenced using the Illumina next-generation sequencing (50 bp single-end). The raw sequencing reads were mapped to the human genome reference (hg19) using Bowtie2^153. 5-hmC peaks (i.e. enriched 5-hmC regions) were then called using the MACS algorithm^154. There are two important findings. 1) There are approximately 13,000-15,000 high quality 5-hmC peaks across the genomes at p<1e-5 calculated by MACS.
Genome-wide 5-hmC was also measured in pre- (i.e. baseline) and post-treatment rectal tissues (i.e. after 3-month Mg supplementation). In this analysis, one individual was included in the treatment arm and the other in the placebo arm. Two-hundred ninety-six (296) and 1271 genes were found with ≥4-fold or ≥3-fold changes in 5-hmC levels from baseline, respectively, in the treatment arm compared to 39 and 176 in the placebo arm (Table 1). Thus, the treatment arm has a much larger number of affected genes than the placebo arm.
Furthermore, the majority of the changes found in 5-hmC caused by Mg treatment are up-modifications, very consistent with findings from in vitro and in vivo studies of vitamin C treatment^86;87.

[3] = 49 days of Mg repletion after 3-month Mg depletion, previous human study, from 0.81 to 0.86, p=0.06; cited from earlier work
embryonic stem cells = settings: vitamin C supplementation, cited from earlier work
[4] = tested on: 5-hmC and 5-mC in tissues; settings: vitamin C supplementation, all three tissues; cited from earlier work
[5] = treatment arm, one individual, after 3-month Mg supplementation

SMILES	Individuals who still had Mg deficiency (retention ≥50% in Mg tolerance test) [1] [%]	Direction of the majority of changes in 5-hmC ([2]; Mg treatment)	Number of genes with ≥3-fold change in 5-hmC peaks from baseline [2, 5]	Number of genes with ≥4-fold change in 5-hmC peaks from baseline [2, 5]	Increase in serum Mg [3] [%]	Number of genes with over 2-fold changes in expression (embryonic stem cells; primarily up-modifications)	Change in 5-hmC (embryonic stem cells)	5-hmC concentrations in tissues [4]
NCC(=O)[O-].NCC(=O)[O-].[Mg+2] [Mg]	42	up-modifications	1271	296	6	–	–	–
O=C1O[C@H]([C@@H](O)CO)C(O)=C1O [vitamin C]	–	–	–	–	–	approximately 200	genome-wide increase in 5-hmC	significantly elevated
